ChEMBL document CHEMBL4118132, “Novel 5-methyl-2-phenylphenanthridium derivatives as FtsZ-targeting antibacterial agents from structural simplification of natural product sanguinarine” (2018)
Values after ≈ are worked out from the molar mass of the structure shown. Active and inactive are the calls of the source. The rule behind the calls is not given here.

Legend:
Staphylococcus aureus [1] = test: Antibacterial activity against penicillin-susceptible Staphylococcus aureus ATCC 25923 after 24 hrs by broth microdilution method; type: functional; conditions: ATCC 25923, 24 h
[2] = target: T1, Cell division protein FtsZ (Bacillus subtilis) (UniProt A5Z1V5); test: Inhibition of penicillin-susceptible Bacillus subtilis ATCC 9372 N-terminal His6-tagged FtsZ expressed in Escherichia coli BL21 (DE3) cells at 10 ug/ml by fluorescence spectrophotometer-based light scattering assay
T1 sequence (whole entry): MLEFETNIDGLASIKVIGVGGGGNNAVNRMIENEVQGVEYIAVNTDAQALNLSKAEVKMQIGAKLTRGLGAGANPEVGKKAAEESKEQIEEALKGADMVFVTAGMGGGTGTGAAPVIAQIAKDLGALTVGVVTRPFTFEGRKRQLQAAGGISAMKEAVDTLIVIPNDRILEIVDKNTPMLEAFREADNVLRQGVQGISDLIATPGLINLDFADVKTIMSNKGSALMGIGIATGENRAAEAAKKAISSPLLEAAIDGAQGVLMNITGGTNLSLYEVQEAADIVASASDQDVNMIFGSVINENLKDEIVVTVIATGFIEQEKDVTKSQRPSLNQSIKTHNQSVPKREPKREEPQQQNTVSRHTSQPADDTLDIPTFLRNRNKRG

Streptococcus pyogenes [3] = test: Antibacterial activity against penicillin-resistant Streptococcus pyogenes after 24 hrs by broth microdilution method; type: functional
Streptococcus pyogenes [4] = test: Antibacterial activity against penicillin-susceptible Streptococcus pyogenes after 24 hrs by broth microdilution method; type: functional
Bacillus subtilis = test: Antibacterial activity against penicillin-susceptible Bacillus subtilis ATCC 9372 after 24 hrs by broth microdilution method; type: functional; conditions: ATCC 9372, 24 h
Bacillus pumilus = test: Antibacterial activity against penicillin-susceptible Bacillus pumilus ATCC 63202 after 24 hrs by broth microdilution method; type: functional; conditions: ATCC 63202, 24 h
Staphylococcus aureus [5] = test: Potency index, ratio of ciprofloxacin MIC to test compound MIC for penicillin-resistant Staphylococcus aureus clinical isolate; type: functional
Staphylococcus aureus [6] = test: Potency index, ratio of ciprofloxacin MIC to test compound MIC for methicillin-resistant Staphylococcus aureus ATCC 43300; type: functional
Staphylococcus aureus [7] = test: Antibacterial activity against methicillin-resistant Staphylococcus aureus ATCC 43300 after 24 hrs by broth microdilution method; type: functional; conditions: ATCC 43300, 24 h
[8] = test system: Staphylococcus epidermidis; test: Potency index, ratio of ciprofloxacin MIC to test compound MIC for penicillin-resistant Staphylococcus epidermidis clinical isolate; type: functional
Staphylococcus aureus [9] = test: Antibacterial activity against penicillin-resistant Staphylococcus aureus clinical isolate after 24 hrs by broth microdilution method; type: functional
Streptococcus pyogenes [10] = test: Potency index, ratio of oxacillin sodium MIC to test compound MIC for penicillin-susceptible Streptococcus pyogenes; type: functional
[11] = target: T1, Cell division protein FtsZ (Bacillus subtilis); test: Inhibition of penicillin-susceptible Bacillus subtilis ATCC 9372 N-terminal His6-tagged FtsZ expressed in Escherichia coli BL21 (DE3) cells by fluorescence spectrophotometer-based light scattering assay
Pseudomonas aeruginosa = test: Antibacterial activity against penicillin-susceptible Pseudomonas aeruginosa ATCC 27853 after 24 hrs by broth microdilution method; type: functional; conditions: ATCC 27853, 24 h
Staphylococcus aureus [12] = test: Potency index, ratio of ciprofloxacin MIC to test compound MIC for penicillin-susceptible Staphylococcus aureus ATCC 25923; type: functional
Streptococcus pyogenes [13] = test: Potency index, ratio of oxacillin sodium MIC to test compound MIC for penicillin-resistant Streptococcus pyogenes; type: functional
Staphylococcus aureus [14] = test: Bactericidal activity against penicillin-susceptible Staphylococcus aureus ATCC 25923 after 24 hrs by flat colony counting method; type: functional; conditions: ATCC 25923, 24 h
[15] = test system: Staphylococcus epidermidis; test: Antibacterial activity against penicillin-resistant Staphylococcus epidermidis clinical isolate after 24 hrs by broth microdilution method; type: functional
Streptococcus pyogenes [16] = test: Potency index, ratio of ciprofloxacin MIC to test compound MIC for penicillin-susceptible Streptococcus pyogenes; type: functional
Staphylococcus aureus [17] = test: Potency index, ratio of oxacillin sodium MIC to test compound MIC for methicillin-resistant Staphylococcus aureus ATCC 43300; type: functional
Staphylococcus aureus [18] = test: Potency index, ratio of oxacillin sodium MIC to test compound MIC for penicillin-susceptible Staphylococcus aureus ATCC 25923; type: functional
Streptococcus pyogenes [19] = test: Potency index, ratio of ciprofloxacin MIC to test compound MIC for penicillin-resistant Streptococcus pyogenes; type: functional
[20] = test system: Staphylococcus epidermidis; test: Potency index, ratio of oxacillin sodium MIC to test compound MIC for penicillin-resistant Staphylococcus epidermidis clinical isolate; type: functional
Escherichia coli = test: Antibacterial activity against penicillin-susceptible Escherichia coli ATCC 25922 after 24 hrs by broth microdilution method; type: functional; conditions: ATCC 25922, 24 h
Staphylococcus aureus [21] = test: Potency index, ratio of oxacillin sodium MIC to test compound MIC for penicillin-resistant Staphylococcus aureus clinical isolate; type: functional
[22] = target: T2, Cell division protein FtsZ (Staphylococcus aureus) (UniProt P0A031); test: Inhibition of FtsZ in penicillin-susceptible Staphylococcus aureus ATCC 25923 assessed as increase in length of bacteria at 4 ug/ml after 5 hrs by phase-contrast light microscopic method
T2 sequence (whole entry): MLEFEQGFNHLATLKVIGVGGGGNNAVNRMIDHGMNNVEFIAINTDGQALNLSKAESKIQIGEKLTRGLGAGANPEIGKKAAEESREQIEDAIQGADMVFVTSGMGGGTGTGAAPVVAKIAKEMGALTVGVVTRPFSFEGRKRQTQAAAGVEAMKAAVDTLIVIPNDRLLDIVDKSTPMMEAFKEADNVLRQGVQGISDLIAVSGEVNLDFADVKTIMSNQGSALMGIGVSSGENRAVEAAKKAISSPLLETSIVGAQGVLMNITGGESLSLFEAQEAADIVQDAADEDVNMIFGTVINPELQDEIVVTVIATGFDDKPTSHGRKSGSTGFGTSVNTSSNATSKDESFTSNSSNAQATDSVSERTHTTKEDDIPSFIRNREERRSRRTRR

[23] = target: T1, Cell division protein FtsZ (Bacillus subtilis); test: Inhibition of FtsZ in penicillin-susceptible Bacillus subtilis ATCC 9372 assessed as increase in length of bacteria at 8 ug/ml after 5 hrs by phase-contrast light microscopic method

| Compound | MIC (Staphylococcus aureus [1]) | MIC (Streptococcus pyogenes [3]) | MIC (Streptococcus pyogenes [4]) | MIC (Bacillus subtilis) | MIC (Bacillus pumilus) | Ratio (Staphylococcus aureus [5]) | Ratio (Staphylococcus aureus [6]) | MIC (Staphylococcus aureus [7]) | MIC (Staphylococcus aureus [9]) | MIC (Pseudomonas aeruginosa) | Ratio (Staphylococcus aureus [12]) | MBC (Staphylococcus aureus [14]) | MIC [15] | Ratio (Staphylococcus aureus [17]) | Ratio (Staphylococcus aureus [18]) | MIC (Escherichia coli) | Ratio (Staphylococcus aureus [21]) | further results |
| --- | --- | --- | --- | --- | --- | --- | --- | --- | --- | --- | --- | --- | --- | --- | --- | --- | --- | --- |
| O=C(O)c1cn(C2CC2)c2cc(N3CCNCC3)c(F)cc2c1=O [CIPROFLOXACIN] | 8 µg/mL (≈ 24.1 µM) | > 64 µg/mL | 8 µg/mL (≈ 24.1 µM) | 2 µg/mL (≈ 6.04 µM) | 8 µg/mL (≈ 24.1 µM) |  |  |  |  |  |  |  |  |  |  |  |  | inhibition [2]: Active |
| Cc1cc(-c2ccc(-c3ccccc3)cc2)cc2c3ccccc3c[n+](C)c12.[Cl-] | 0.06 µg/mL | 2 µg/mL | 1 µg/mL | 0.125 µg/mL | 0.125 µg/mL | 64 | 4 - 164 | 0.5 µg/mL | 0.25 µg/mL | > 64 µg/mL | 133 | 64 µg/mL | 0.125 µg/mL | 16 - 256 | 67 | > 64 µg/mL | 256 | Ratio [8]: 512; Ratio (Streptococcus pyogenes [10]): 1; inhibition [11]: Dose-dependent effect; Ratio (Streptococcus pyogenes [13]): 32; Ratio (Streptococcus pyogenes [16]): 8; Ratio (Streptococcus pyogenes [19]): 32; Ratio [20]: 512 |
| Cc1ccc(-c2cc(C)c3c(c2)c2ccccc2c[n+]3C)cc1.[Cl-] | 0.5 µg/mL | 4 µg/mL | 4 µg/mL | 0.5 µg/mL | 2 µg/mL | 4 - 64 | 4 - 164 | 2 µg/mL | 1 µg/mL | > 64 µg/mL | 8 - 133 | 32 µg/mL | 2 µg/mL | 16 - 256 | 4 - 67 | > 64 µg/mL | 16 - 256 |  |
| C[n+]1cc2c3c(ccc2c2ccc4cc5c(cc4c21)OCO5)OCO3.[Cl-] [SANGUINARIUM CHLORIDE] | 8 µg/mL | 4 µg/mL | 4 µg/mL | 4 µg/mL | 4 µg/mL |  |  | 8 µg/mL | 4 µg/mL | > 64 µg/mL |  |  | 8 µg/mL |  |  | > 64 µg/mL |  | inhibition [22]: Active; inhibition [23]: Active |
